From US20100197628A1, “METHODS OF TREATING PSYCHIATRIC, SUBSTANCE ABUSE, AND OTHER DISORDERS USING COMBINATIONS CONTAINING OMEGA-3 FATTY ACIDS” (priority 2003, published 2010)
“Also recorded” adds a separate entry of the source.

Experiments:
[1] = tested on: brain phosphodiesters; assay: Phosphorus-31 MR spectroscopy of lipid metabolite resonances during chronic CDP-choline administration; assay type: in vivo, human; details: 18 healthy subjects, mean age 70; 500 mg oral daily for 6 weeks, weeks 6-12 half continued, half placebo; p=0.008
Method: (§1) To assess whether chronic CDP-choline administration leads to detectable changes in lipid metabolite resonances in phosphorus-31 MR spectra, eighteen healthy subjects (mean age: 70) were administered 500 mg of an oral formulation of CDP-choline daily for a six week period. From weeks 6 to 12, half of the subjects continued to receive CDP-choline and half received placebo in a double-blind fashion. […] CDP-choline administration, therefore, improves measures of verbal fluency and spatial memory in healthy adults and results in increased brain phospholipid synthesis in older adults, particularly during chronic administration.

[2] = tested on: healthy subjects; assay: Neuropsychological testing during chronic CDP-choline administration; assay type: in vivo, human; details: across all subjects at week twelve, 500 mg oral daily
Method: as §1

[3] = tested on: depressed subjects; assay: 17-item Hamilton Depression Rating Scale (HDRS), eight weeks of treatment; assay type: in vivo, human
Method: (§2) In a second study, twelve depressed subjects (mean age 40) received 500 mg of an oral formulation of CDP-choline twice daily for eight weeks.

[4] = tested on: cytosolic choline resonance in the anterior cingulate cortex; assay: Proton MR spectroscopy of cytosolic choline resonance; assay type: in vivo, human; details: associated with a successful response; 500 mg twice daily, eight weeks
Method: as §2

[5] = tested on: rats; assay: Forced swim test (FST) with citicoline, cytidine and choline; assay type: in vivo, rat; details: IP; for antidepressant effects in the FST: citicoline 50-500 mg/kg, cytidine 23.8-238 mg/kg, choline 13.7-136.6 mg/kg (molar equivalent amounts)
Method: The effects of citicoline were examined in the forced swim test (FST), a rodent model of depression as described herein. Because citicoline is rapidly converted to cytidine and choline, their effects were also examined in the FST.
Forced Swim Test (FST): One hundred-sixty seven rats were used in the FST studies, which were conducted as described previously (Carlezon et al. Biol. Psychiatry 51:882-889, 2002) with minor modifications. The FST is a two-day procedure in which rats swim under conditions in which escape is not possible. On the first day, rats are placed in clear, 65 cm tall-25 cm diameter cylinders filled to 48 cm with 25° C. water. The rats initially struggle to escape from the water, but eventually they adopt a posture of immobility in which they make only the movements necessary to keep their heads above water. After 15 min of forced swimming, the rats are removed from the water, dried with towels, and placed in a warmed enclosure for 30 min. The cylinders are emptied and cleaned between rats. When the rats are re-tested 24 hours later under identical conditions in 5 min sessions, immobility is increased. Treatment with standard antidepressant drugs within the 24 hr period between the first exposure to forced swimming and re-testing can attenuate facilitated immobility, an effect correlated with antidepressant efficacy in humans (Porsolt et al. Nature 266:730-732 1977; Detke et al. Psychopharmacology 121:66-72 1995, Carlezon et al. Biol. Psychiatry 51:882-889, 2002).

[6] = cited from earlier work
[7] = ingestion of large amounts in preclinical studies; cited from earlier work
[8] = tested on: male Sprague-Dawley rats; assay: Forced swim test (FST): latency to become immobile and behavioral sampling; assay type: in vivo, rat; details: re-test
Method: The behavioral effects of the combination of uridine and omega-3 fatty acids were also evaluated in rats using the forced swim test (FST). This assay identifies in rodents treatments that have antidepressant effects in humans (Porsolt et al. Nature 266:730-732 1977; Carlezon et al. Biol. Psychiatry 51:882-889, 2002). Uridine was administered using systemic injection while omega-3 fatty acids were administered by supplementation within the diet for various periods of time (3, 10, or 30 days). The effects of uridine in rats maintained on the omega-3 fatty acid-enriched diet were also evaluated to determine if these effects were additive. […] The efficacy of each treatment in the FST was evaluated using two separate scoring methods: latency to become immobile, a simple and rapid method that identifies agents with antidepressant effects ([…] et al. J Neurosci 21:7397-7403 2001), and behavioral sampling, a more complex method that differentiates antidepressant drugs according to their pharmacological mechanisms (Detke et al. Psychopharmacology 121:66-72 1995). Finally, treatments with antidepressant-like effects in the FST were evaluated for non-specific effects on activity in an open field, which might complicate interpretation of the data from the swimming studies. Rats: A total of 197 male Sprague-Dawley rats (Charles River Laboratories, Boston Mass.) were used in these studies. The rats were housed in groups of four and weighed 325-375 gm at the time of behavioral testing. Rats were maintained on a 12 h light (0700-1900 h)-12 h dark cycle with free access to food and water except during testing. Experiments were conducted in accordance with the 1996 Guide for the Care and Use of Laboratory Animals (NIH) and McLean Hospital policies. Drugs: Dosages of desipramine HCl (DMI), fluoxetine HCl (FLX), citalopram HBr (CIT), and uridine (URI) were administered in a distilled water vehicle (VEH) at a volume of 1 cc/kg. All drugs were purchased from RBI-Sigma (St. Louis, Mo.) except CIT, which was a gift of Forest Laboratories (New York, N.Y.). […] The diets were equivalent in overall fat, protein, carbohydrate, and caloric content. Forced Swim Test (FST): One hundred-sixty seven rats were used in the FST studies, which were conducted as described previously (Carlezon et al. Biol. Psychiatry 51:882-889, 2002) with minor modifications. The FST is a two-day procedure in which rats swim under conditions in which escape is not possible. On the first day, rats are placed in clear, 65 cm tall-25 cm diameter cylinders filled to 48 cm with 25° C. water. The rats initially struggle to escape from the water, but eventually they adopt a posture of immobility in which they make only the movements necessary to keep their heads above water. After 15 min of forced swimming, the rats are removed from the water, dried with towels, and placed in a warmed enclosure for 30 min. The cylinders are emptied and cleaned between rats. When the rats are re-tested 24 hours later under identical conditions in 5 min sessions, immobility is increased. Treatment with standard antidepressant drugs within the 24 hr period between the first exposure to forced swimming and re-testing can attenuate facilitated immobility, an effect correlated with antidepressant efficacy in humans (Porsolt et al. Nature 266:730-732 1977; Detke et al. Psychopharmacology 121:66-72 1995, Carlezon et al. Biol. Psychiatry 51:882-889, 2002). Rats tested with DMI, FLX, CIT, or URI received 3 separate intraperitoneal (IP) injections of drug (or VEH), at 1 hr, 19 hr, and 23 hr after the first exposure to forced swimming. This commonly used regimen is sensitive to the antidepressant-like effects of many standard agents (Porsolt et al. Nature 266:730-732 1977; Detke et al. Psychopharmacology 121:66-72 1995; Carlezon et al. Biol. Psychiatry 51:882-889, 2002). […] There were 7-12 rats per treatment condition, and separate rats were used for each treatment regimen. […]

[9] = Weights of the rats at the time of the re-test; assay type: in vivo, rat; details: FST studies
Method: Rats: A total of 197 male Sprague-Dawley rats (Charles River Laboratories, Boston Mass.) were used in these studies. The rats were housed in groups of four and weighed 325-375 gm at the time of behavioral testing. Rats were maintained on a 12 h light (0700-1900 h)-12 h dark cycle with free access to food and water except during testing. Experiments were conducted in accordance with the 1996 Guide for the Care and Use of Laboratory Animals (NIH) and McLean Hospital policies.

[10] = tested on: rats; assay: Locomotor activity after cytidine; assay type: in vivo, rat; details: 238 mg/kg, IP (optimally effective dose)
[11] = tested on: rats; assay: Conditioned rewarding effects of cytidine; assay type: in vivo, rat; details: 238 mg/kg, IP
[12] = eight weeks, CDP-choline 500 mg twice daily, fluoxetine 20 mg/day

For `C[N+](C)(C)CCOP(=O)(O)OP(=O)([O-])OC[C@H]1O[C@@H](n2ccc(N)nc2=O)[C@H](O)[C@@H]1O` [CDP-choline, cytidine 5′-diphosphocholine], the “brain phosphodiesters (phosphorus-31 MR)” value [1] was “significant increase”, the visuospatial learning ([2]; p=0.0001) was “increases” and the verbal learning ([2]; p=0.003) was “increases”. For the same compound, the verbal fluency ([2]; p=0.07) was “increases”, the “mean 17-item HDRS score with eight weeks of treatment” value ([3]; CDP-choline 500 mg oral twice daily, fluoxetine open label 20 mg/day, p<0.0001) was 10±7 and the “mean 17-item HDRS score before treatment” value ([3]; baseline, CDP-choline 12 subjects, fluoxetine 41 subjects) was 21±3. For the same compound, the “complete responses (subjects/total)” value [3, 12] was 6/12, the “complete responses, share of subjects” value [3, 12] was 50% and the “proton MR spectroscopic cytosolic choline resonance in the anterior cingulate cortex” value [4] was “reduction”. The “antidepressant effects in the FST” value [5] was “did not have antidepressant effects”, the “effect in the FST at high doses” value ([5]; high doses of citicoline) was “small pro-depressant effects” and the “CDP-choline and/or its metabolites absorbed” value ([6]; orally administered) was “more than 99%”. The excreted in feces ([6]; orally administered) was “less than 1%”, the excretion route lung ([6]; share of dose) was 12.9% and the excretion route urine ([6]; share of dose) was 2.4%. The “rest of the dose metabolized and retained in tissues” value ([6]; share of dose) was 83.9% and the toxicity symptoms [7] was “common cholinergic symptoms”.
For `O=c1ccn([C@@H]2O[C@H](CO)[C@@H](O)[C@H]2O)c(=O)[nH]1` [URI, uridine], the “latency to become immobile” value ([8]; URI 71.7 mg/kg IP) was “not”, the “latency to become immobile” value ([8]; URI 130 mg/kg IP) was “not” and the immobility ([8]; URI 239 mg/kg IP) was “reduced immobility”. The “latency to become immobile” value ([8]; URI 239 mg/kg IP) was “increased latencies”, the swimming behaviors ([8]; URI 239 mg/kg IP) was “increased swimming behaviors” and the “latency to become immobile, effect over doses” value ([8]; URI alone 71.7, 130, 239 mg/kg IP) was “dose-dependent effects; also recorded: dose-dependently increased latencies to become immobile”. For the same compound, the occurrences of climbing ([8]; URI alone 71.7-239 mg/kg IP) was “without affecting climbing”, the “occurrences of immobility, effect over doses” value ([8]; URI alone 71.7-239 mg/kg IP) was “significantly affected; also recorded: dose-dependently decreased immobility” and the “occurrences of swimming, effect over doses” value ([8]; URI alone 71.7-239 mg/kg IP) was “significantly affected; also recorded: increased swimming”. The “weights of the rats” value [9] was “did not affect”.
For `Nc1ccn([C@@H]2O[C@H](CO)[C@@H](O)[C@H]2O)c(=O)n1` [cytidine], the “antidepressant effects in the FST” value [5] was “significant antidepressant effects”, the locomotor activity [10] was “did not affect locomotor activity” and the conditioned rewarding effects [11] was “did not affect locomotor activity or establish conditioned rewarding effects”.
